Source: patent US9253984B2, “Herbicidal compositions comprising pyroxasulfone VII” (BASF SE, priority 2008, dated 2016)
Like-named read-outs stand apart in the source and are kept apart here.

Experiments:
[1] = tested on: Xanthium strumarium (XANST, cocklebur); test: greenhouse pre-emergence herbicidal activity; format: in vivo; conditions: read-out: observed % activity; for inhibition at 100 g/ha: 100 g ai/ha; for inhibition at 200 g/ha: 200 g ai/ha; for inhibition at 25 g/ha: 25 g ai/ha
Experimental: (§1) The containers were irrigated gently to promote germination and growth and subsequently covered with transparent plastic hoods until plant had rooted.
(§2) In the examples, the solvent used was water. […] In the examples, the solvent used was water.
(§3) Dicamba was used as a commercial aqueous solution having an active ingredient concentration of 480 g/l.
(§4) The test period extended over 21 days.
(§5) The evaluation for the damage caused by the chemical compositions was carried out using a scale from 0 to 100%, compared to the untreated control plants. Here, 0 means no damage and 100 means complete destruction of the plants.
(§6) The value E, which is to be expected if the activity of the individual compounds is just additive, was calculated using the method of S. R. Colby (1967) “Calculating synergistic and antagonistic responses of herbicide combinations”, Weeds 15, p. 22 ff. E=X+Y−(X·Y/100) where X=effect in percent using herbicide A at an application rate a; • Y=effect in percent using herbicide B at an application rate b; • E=expected effect (in %) of A+B at application rates a+b.
(§7) If the value observed in this manner is higher than the value E calculated according to Colby, a synergistic effect is present.

[2] = tested on: Matricaria inermis (MATIN, scentless mayweed); test: greenhouse pre-emergence herbicidal activity; format: in vivo; conditions: read-out: observed % activity; for inhibition at 200 g/ha: 200 g ai/ha; for inhibition at 50 g/ha: 50 g ai/ha
Experimental: as §1, §2, §3, §4, §5, §6, §7

[3] = tested on: Helianthus annuus (HELAN, sunflower); test: greenhouse pre-emergence herbicidal activity; format: in vivo; conditions: read-out: observed % activity; for inhibition at 50 g/ha: 50 g ai/ha; for inhibition at 100 g/ha: 100 g ai/ha; for inhibition at 200 g/ha: 200 g ai/ha; for inhibition at 25 g/ha: 25 g ai/ha
Experimental: as §1, §2, §3, §4, §5, §6, §7

[4] = tested on: Abutilon theophrasti (ABUTH, velvetleaf); test: greenhouse pre-emergence herbicidal activity; format: in vivo; conditions: read-out: observed % activity; for inhibition at 200 g/ha: 200 g ai/ha; for inhibition at 25 g/ha: 25 g ai/ha; for inhibition at 50 g/ha: 50 g ai/ha
Experimental: as §1, §2, §3, §4, §5, §6, §7

[5] = tested on: Ambrosia artemisifolia (AMBEL, common ragweed); test: greenhouse pre-emergence herbicidal activity; format: in vivo; conditions: read-out: observed % activity; for inhibition at 200 g/ha: 200 g ai/ha; for inhibition at 50 g/ha: 50 g ai/ha
Experimental: as §1, §2, §3, §4, §5, §6, §7

[6] = tested on: Setaria faberii (SETFA, giant foxtail); test: greenhouse post-emergence herbicidal activity; format: in vivo; conditions: Setaria faberi, read-out: observed % activity; for inhibition at 50 g/ha: 50 g ai/ha; for inhibition at 100 g/ha: 100 g ai/ha
From the text: (§8) For the post-emergence treatment, the test plants were first grown to a height of 3 to 20 cm, depending on the plant habit, and only then treated. Here, the herbicidal compositions were suspended or emulsified in water as distribution medium and sprayed using finely distributing nozzles.
as §2, §3, §4, §5, §6, §7

[7] = tested on: Ipomoea purpurea (PHBPU, tall morningglory); test: greenhouse post-emergence herbicidal activity; format: in vivo; conditions: 20 DAT
From the text: as §8, §2, §3, §4, §5, §6, §7

[8] = tested on: Polygonum convolvulus (POLCO, wild buckwheat); test: greenhouse post-emergence herbicidal activity; format: in vivo; conditions: 20 DAT
From the text: as §8, §2, §3, §4, §5, §6, §7

[9] = tested on: Echinochloa crus-galli (ECHCG, barnyardgrass); test: greenhouse post-emergence herbicidal activity; format: in vivo; conditions: read-out: observed % activity; for inhibition at 100 g/ha: 100 g ai/ha; for inhibition at 13 g/ha: 13 g ai/ha
From the text: as §8, §2, §3, §4, §5, §6, §7

[10] = tested on: Setaria lutescens (SETLU, yellow foxtail); test: greenhouse post-emergence herbicidal activity; format: in vivo; conditions: read-out: observed % activity; for inhibition at 50 g/ha: 50 g ai/ha; for inhibition at 13 g/ha: 13 g ai/ha
From the text: as §8, §2, §3, §4, §5, §6, §7

[11] = tested on: Alopecurus myosuroides (ALOMY, blackgrass); test: greenhouse post-emergence herbicidal activity; format: in vivo; conditions: read-out: observed % activity; for inhibition at 50 g/ha: 50 g ai/ha; for inhibition at 13 g/ha: 13 g ai/ha
From the text: as §8, §2, §3, §4, §5, §6, §7

[12] = tested on: harmful plants; conditions: known from Y. Yamaji et al., 2006; cited from earlier work

In the case of `COc1c(Cl)ccc(Cl)c1C(=O)O` [dicamba], the inhibition at 100 g/ha ([1]; 192 h, 8 DAT) is reported as 50%, the inhibition at 200 g/ha ([1]; 192 h, 8 DAT) is reported as 85% and the inhibition at 100 g/ha ([1]; 480 h, 20 DAT) is reported as 80%. The inhibition at 200 g/ha ([1]; 480 h, 20 DAT) was 95%, the inhibition at 200 g/ha ([2]; 192 h, 8 DAT) was 50% and the inhibition at 200 g/ha ([2]; 480 h, 20 DAT) was 65%. The inhibition at 50 g/ha ([3]; 192 h, 8 DAT) was 30%, the inhibition at 100 g/ha ([3]; 192 h, 8 DAT) was 30% and the inhibition at 200 g/ha ([3]; 192 h, 8 DAT) was 75%. For the same molecule, the inhibition at 50 g/ha ([3]; 480 h, 20 DAT) was 35%, the inhibition at 100 g/ha ([3]; 480 h, 20 DAT) was 50% and the inhibition at 200 g/ha ([3]; 480 h, 20 DAT) was 85%. The inhibition at 200 g/ha ([4]; 192 h, 8 DAT) was 40%, the inhibition at 200 g/ha ([4]; 480 h, 20 DAT) was 70% and the inhibition at 200 g/ha ([5]; 192 h, 8 DAT) was 65%. It also gave an inhibition at 200 g/ha ([5]; 480 h, 20 DAT) of 95%, an inhibition at 50 g/ha ([6]; 168 h, 7 DAT) of 25% and an inhibition at 100 g/ha ([6]; 168 h, 7 DAT) of 25%. For the same molecule, the inhibition at 50 g/ha ([6]; 480 h, 20 DAT) was 0%, the inhibition at 100 g/ha ([6]; 480 h, 20 DAT) was 0% and the “observed activity in % destruction 20 days after treatment” value ([7]; 200 g ai/ha) was 90%. For the same molecule, the “observed activity in % destruction 20 days after treatment” value ([8]; 50 g ai/ha) was 80%, the inhibition at 100 g/ha ([9]; 168 h, 7 DAT) was 20% and the inhibition at 100 g/ha ([9]; 480 h, 20 DAT) was 15%. It also gave an inhibition at 50 g/ha ([10]; 168 h, 7 DAT) of 40%, an inhibition at 50 g/ha ([10]; 480 h, 20 DAT) of 10% and an inhibition at 50 g/ha ([11]; 168 h, 7 DAT) of 10%. It also gave an inhibition at 50 g/ha ([11]; 480 h, 20 DAT) of 20%.

In the case of `Cn1nc(C(F)(F)F)c(CS(=O)(=O)C2=NOC(C)(C)C2)c1OC(F)F` [pyroxasulfone, 3-[5-(difluoromethoxy)-1-methyl-3-(trifluoromethyl)pyrazol-4-ylmethylsulfonyl]-4,5-dihydro-5,5-dimethyl-1,2-oxazole], the post-emergence activity [12] is given as “only poor post-emergence activity”, the inhibition at 25 g/ha ([1]; 192 h, 8 DAT) is given as 0% and the inhibition at 25 g/ha ([1]; 480 h, 20 DAT) is given as 0%. The inhibition at 50 g/ha ([2]; 192 h, 8 DAT) was 20%, the inhibition at 50 g/ha ([2]; 480 h, 20 DAT) was 85% and the inhibition at 25 g/ha ([3]; 192 h, 8 DAT) was 0%. It also gave an inhibition at 50 g/ha ([3]; 192 h, 8 DAT) of 0%, an inhibition at 25 g/ha ([3]; 480 h, 20 DAT) of 0% and an inhibition at 50 g/ha ([3]; 480 h, 20 DAT) of 0%. It also gave an inhibition at 25 g/ha ([4]; 192 h, 8 DAT) of 50%, an inhibition at 50 g/ha ([4]; 192 h, 8 DAT) of 50% and an inhibition at 25 g/ha ([4]; 480 h, 20 DAT) of 80%. It also gave an inhibition at 50 g/ha ([4]; 480 h, 20 DAT) of 98%, an inhibition at 50 g/ha ([5]; 192 h, 8 DAT) of 50% and an inhibition at 50 g/ha ([5]; 480 h, 20 DAT) of 80%. For the same molecule, the inhibition at 50 g/ha ([6]; 168 h, 7 DAT) was 65%, the inhibition at 50 g/ha ([6]; 480 h, 20 DAT) was 90% and the “observed activity in % destruction 20 days after treatment” value ([7]; 13 g ai/ha) was 30%. For the same molecule, the “observed activity in % destruction 20 days after treatment” value ([8]; 100 g ai/ha) was 55%, the inhibition at 13 g/ha ([9]; 168 h, 7 DAT) was 25% and the inhibition at 13 g/ha ([9]; 480 h, 20 DAT) was 80%. The inhibition at 13 g/ha ([10]; 168 h, 7 DAT) was 0%, the inhibition at 13 g/ha ([10]; 480 h, 20 DAT) was 65% and the inhibition at 13 g/ha ([11]; 168 h, 7 DAT) was 0%. The inhibition at 13 g/ha ([11]; 480 h, 20 DAT) was 15%.
